Laboratory results published in patent US11370798B2 (Vertex Pharmaceuticals Incorporated, priority 2012, dated 2022).

Tested on: HCT116 colorectal cancer cells
Assay: Cisplatin sensitization assay (96 h cell viability MTS);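 note: Test-compound concentration that lowers the Cisplatin IC50 by a set fold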
Format: cell-based
Conditions: compound and Cisplatin added simultaneously, Cisplatin sensitization value
Outline: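 Compound and cisplatin added together as a full matrix of 2-fold serial dilutions from a top final concentration of 10 μM; cells incubated 96 h at 37° C, 5% CO2. Viability then read by MTS after 1 h further incubation; sensitization value reported in μM bins.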

Row | Compound | Cisplatin Sensitization Assay
1 | Nc1nn2cc(Cl)cnc2c1C(=O)Nc1cnccc1N1CCC(N2CCOCC2)CC1 [I-N-104, 2-amino-6-chloro-N-(4-(4-morpholinopiperidin-1-yl)pyridin-3-yl)pyrazolo[1,5-a]pyrimidine-3-carboxamide] | +++ (Cisplatin sensitization value of <0.02 μM)
2 | Nc1nn2cc(Cl)cnc2c1C(=O)Nc1cnccc1N1CCC(N2CCCC2)CC1 [I-N-105, 2-amino-6-chloro-N-(4-(4-(pyrrolidin-1-yl)piperidin-1-yl)pyridin-3-yl)pyrazolo[1,5-a]pyrimidine-3-carboxamide] | +++ (Cisplatin sensitization value of <0.02 μM)
3 | CN(C)C1CCN(C2CCN(c3ccncc3NC(=O)c3c(N)nn4cc(Cl)cnc34)CC2)C1 (centres unmarked) [I-N-106, 2-amino-6-chloro-N-(4-(4-(3-(dimethylamino)pyrrolidin-1-yl)piperidin-1-yl)pyridin-3-yl)pyrazolo[1,5-a]pyrimidine-3-carboxamide] | +++ (Cisplatin sensitization value of <0.02 μM)
4 | COC1CN(C2CCN(c3ccncc3NC(=O)c3c(N)nn4cc(Cl)cnc34)CC2)C1 [I-N-107, 2-amino-6-chloro-N-(4-(4-(3-methoxyazetidin-1-yl)piperidin-1-yl)pyridin-3-yl)pyrazolo[1,5-a]pyrimidine-3-carboxamide] | +++ (Cisplatin sensitization value of <0.02 μM)
5 | Nc1nn2cc(Cl)cnc2c1C(=O)Nc1cnccc1N1CCC(N2CC(F)(F)C2)CC1 [I-N-108, 2-amino-6-chloro-N-(4-(4-(3,3-difluoroazetidin-1-yl)piperidin-1-yl)pyridin-3-yl)pyrazolo[1,5-a]pyrimidine-3-carboxamide] | +++ (Cisplatin sensitization value of <0.02 μM)
6 | Nc1nn2cc(Cl)cnc2c1C(=O)Nc1cnccc1N1CCC(N2CCC23COC3)CC1 [I-N-109, N-(4-(4-(6-oxa-1-azaspiro[3.3]heptan-1-yl)piperidin-1-yl)pyridin-3-yl)-2-amino-6-chloropyrazolo[1,5-a]pyrimidine-3-carboxamide] | +++ (Cisplatin sensitization value of <0.02 μM)
7 | CN1CCN(c2c(NC(=O)c3c(N)nn4cc(F)cnc34)cncc2C(F)F)CC1 [I-N-111, 2-amino-N-(5-(difluoromethyl)-4-(4-methylpiperazin-1-yl)pyridin-3-yl)-6-fluoropyrazolo[1,5-a]pyrimidine-3-carboxamide] | ++ (Cisplatin sensitization value>0.02 μM but <0.2 μM)
8 | Nc1nn2cc(F)cnc2c1C(=O)Nc1cnccc1N1CCN(C2COC2)C2CC21 (centres unmarked) [I-N-112, 2-amino-6-fluoro-N-(4-(5-(oxetan-3-yl)-2,5-diazabicyclo[4.1.0]heptan-2-yl)pyridin-3-yl)pyrazolo[1,5-a]pyrimidine-3-carboxamide] | + (Cisplatin sensitization value>0.2 μM but <5 μM)
9 | CN1CCN(c2c(C#N)cncc2NC(=O)c2c(N)nn3cc(F)cnc23)CC1 [I-N-113, 2-amino-N-(5-cyano-4-(4-methylpiperazin-1-yl)pyridin-3-yl)-6-fluoropyrazolo[1,5-a]pyrimidine-3-carboxamide] | + (Cisplatin sensitization value>0.2 μM but <5 μM)
10 | Nc1nn2cc(F)cnc2c1C(=O)Nc1cnccc1N1CCN2CCOC[C@@H]2C1 [I-N-115, (S)-2-amino-6-fluoro-N-(4-(hexahydropyrazino[2,1-c][1,4]oxazin-8(1H)-yl)pyridin-3-yl)pyrazolo[1,5-a]pyrimidine-3-carboxamide] | +++ (Cisplatin sensitization value of <0.02 μM)
11 | Nc1nn2cc(F)cnc2c1C(=O)Nc1cnccc1N1CCN2CCOC[C@H]2C1 [I-N-116, (R)-2-amino-6-fluoro-N-(4-(hexahydropyrazino[2,1-c][1,4]oxazin-8(1H)-yl)pyridin-3-yl)pyrazolo[1,5-a]pyrimidine-3-carboxamide] | ++ (Cisplatin sensitization value>0.02 μM but <0.2 μM)
12 | Nc1nn2cc(Cl)cnc2c1C(=O)Nc1cncc(F)c1N1CCN(C2COC2)CC1 [I-N-117, 2-amino-6-chloro-N-(5-fluoro-4-(4-(oxetan-3-yl)piperazin-1-yl)pyridin-3-yl)pyrazolo[1,5-a]pyrimidine-3-carboxamide] | +++ (Cisplatin sensitization value of <0.02 μM)
13 | Nc1nn2cc(F)cnc2c1C(=O)Nc1cncc(F)c1N1CCNCC1 [I-N-118, 2-amino-6-fluoro-N-(5-fluoro-4-(piperazin-1-yl)pyridin-3-yl)pyrazolo[1,5-a]pyrimidine-3-carboxamide] | +++ (Cisplatin sensitization value of <0.02 μM)
14 | Nc1nn2cc(F)cnc2c1C(=O)Nc1cncc(C2CC2)c1N1CCN([C@@H]2CCOC2)CC1 [I-N-119, (R)-2-amino-N-(5-cyclopropyl-4-(4-(tetrahydrofuran-3-yl)piperazin-1-yl)pyridin-3-yl)-6-fluoropyrazolo[1,5-a]pyrimidine-3-carboxamide] | ++ (Cisplatin sensitization value>0.02 μM but <0.2 μM)
15 | Nc1nn2cc(F)cnc2c1C(=O)Nc1cncc(C2CC2)c1N1CCN([C@H]2CCOC2)CC1 [I-N-120, (S)-2-amino-N-(5-cyclopropyl-4-(4-(tetrahydrofuran-3-yl)piperazin-1-yl)pyridin-3-yl)-6-fluoropyrazolo[1,5-a]pyrimidine-3-carboxamide] | +++ (Cisplatin sensitization value of <0.02 μM)
16 | Nc1nn2cc(F)cnc2c1C(=O)Nc1cncc(F)c1N1CCN(C2CCOCC2)CC1 [I-N-121, 2-amino-6-fluoro-N-(5-fluoro-4-(4-(tetrahydro-2H-pyran-4-yl)piperazin-1-yl)pyridin-3-yl)pyrazolo[1,5-a]pyrimidine-3-carboxamide] | +++ (Cisplatin sensitization value of <0.02 μM)
17 | Nc1nn2cc(F)cnc2c1C(=O)Nc1cncc(F)c1N1CCN(C2CCOC2)CC1 (centres unmarked) [I-N-122, 2-amino-6-fluoro-N-(5-fluoro-4-(4-(tetrahydrofuran-3-yl)piperazin-1-yl)pyridin-3-yl)pyrazolo[1,5-a]pyrimidine-3-carboxamide] | ++ (Cisplatin sensitization value>0.02 μM but <0.2 μM)
18 | Cc1cncc(NC(=O)c2c(N)nn3cc(F)cnc23)c1N1CCN(C2CCOCC2)CC1 [I-N-123, 2-amino-6-fluoro-N-(5-methyl-4-(4-(tetrahydro-2H-pyran-4-yl)piperazin-1-yl)pyridin-3-yl)pyrazolo[1,5-a]pyrimidine-3-carboxamide] | ++ (Cisplatin sensitization value>0.02 μM but <0.2 μM)
19 | Nc1nn2cc(F)cnc2c1C(=O)Nc1cncc(Cl)c1N1CCN(C2CCOC2)CC1 (centres unmarked) [I-N-124, 2-amino-N-(5-chloro-4-(4-(tetrahydrofuran-3-yl)piperazin-1-yl)pyridin-3-yl)-6-fluoropyrazolo[1,5-a]pyrimidine-3-carboxamide] | +++ (Cisplatin sensitization value of <0.02 μM)
20 | Nc1nn2cc(F)cnc2c1C(=O)Nc1cncc(F)c1N1CCN([C@H]2CCOC2)CC1 [I-N-125, (S)-2-amino-6-fluoro-N-(5-fluoro-4-(4-(tetrahydrofuran-3-yl)piperazin-1-yl)pyridin-3-yl)pyrazolo[1,5-a]pyrimidine-3-carboxamide] | +++ (Cisplatin sensitization value of <0.02 μM)
21 | Nc1nn2cc(F)cnc2c1C(=O)Nc1cncc(Cl)c1N1CCNCC1 [I-N-126, 2-amino-N-(5-chloro-4-(piperazin-1-yl)pyridin-3-yl)-6-fluoropyrazolo[1,5-a]pyrimidine-3-carboxamide] | +++ (Cisplatin sensitization value of <0.02 μM)
22 | COCCN1CCN(c2c(F)cncc2NC(=O)c2c(N)nn3cc(F)cnc23)CC1 [I-N-127, 2-amino-6-fluoro-N-(5-fluoro-4-(4-(2-methoxyethyl)piperazin-1-yl)pyridin-3-yl)pyrazolo[1,5-a]pyrimidine-3-carboxamide] | +++ (Cisplatin sensitization value of <0.02 μM)
23 | CN1CCC(C(=O)N2CCN(c3c(F)cncc3NC(=O)c3c(N)nn4cc(F)cnc34)CC2)CC1 [I-N-128, 2-amino-6-fluoro-N-(5-fluoro-4-(4-(1-methylpiperidine-4-carbonyl)piperazin-1-yl)pyridin-3-yl)pyrazolo[1,5-a]pyrimidine-3-carboxamide] | +++ (Cisplatin sensitization value of <0.02 μM)
24 | Nc1nn2cc(F)cnc2c1C(=O)Nc1cncc(F)c1N1CCN(C(=O)C2CN3CCC2CC3)CC1 (centres unmarked) [I-N-130, 2-amino-6-fluoro-N-(5-fluoro-4-(4-(quinuclidine-3-carbonyl)piperazin-1-yl)pyridin-3-yl)pyrazolo[1,5-a]pyrimidine-3-carboxamide] | ++ (Cisplatin sensitization value>0.02 μM but <0.2 μM)
25 | CN1CC[C@@H](OC2CCN(c3ccncc3NC(=O)c3c(N)nn4cc(F)cnc34)CC2)C1 [I-N-131] | +++ (Cisplatin sensitization value of <0.02 μM)
26 | CN1CC[C@@H](OC2CCN(c3c(F)cncc3NC(=O)c3c(N)nn4cc(F)cnc34)CC2)C1 [I-N-132, (R)-2-amino-6-fluoro-N-(5-fluoro-4-(4-((1-methylpyrrolidin-3-yl)oxy)piperidin-1-yl)pyridin-3-yl)pyrazolo[1,5-a]pyrimidine-3-carboxamide] | +++ (Cisplatin sensitization value of <0.02 μM)
27 | CN1CCN(c2ccncc2NC(=O)c2c(N)nn3cc(F)cnc23)CC12CCOCC2 [I-N-133, 2-amino-6-fluoro-N-(4-(1-methyl-9-oxa-1,4-diazaspiro[5.5]undecan-4-yl)pyridin-3-yl)pyrazolo[1,5-a]pyrimidine-3-carboxamide] | ++ (Cisplatin sensitization value>0.02 μM but <0.2 μM)
28 | Nc1nn2cc(F)cnc2c1C(=O)Nc1cncc(F)c1N1CCN(C(=O)C23CCN(CC2)CC3)CC1 [I-N-134, 2-amino-6-fluoro-N-(5-fluoro-4-(4-(quinuclidine-4-carbonyl)piperazin-1-yl)pyridin-3-yl)pyrazolo[1,5-a]pyrimidine-3-carboxamide] | + (Cisplatin sensitization value>0.2 μM but <5 μM)
29 | Nc1nn2cc(F)cnc2c1C(=O)Nc1cncc(F)c1N1CCN2CCOC[C@H]2C1 [I-N-135, (R)-2-amino-6-fluoro-N-(5-fluoro-4-(hexahydropyrazino[2,1-c][1,4]oxazin-8(1H)-yl)pyridin-3-yl)pyrazolo[1,5-a]pyrimidine-3-carboxamide] | +++ (Cisplatin sensitization value of <0.02 μM)
